{
  "source": "patent US20070232677A1",
  "about": "“Treatment and prevention of vascular hyperplasia using polyamine and polyamine analog compounds” (priority 2006, published 2007)",
  "key": {"[1]": {"test_system": "baboon vascular grafts (graft intimal hyperplasia)", "experiment": "Inhibition of graft intimal hyperplasia by polyamine infusion, baboon aortoiliac bypass graft model", "assay_type": "in vivo", "parameters": "thickness of grafts, Left Proximal Ave. / thickness of grafts, Left Distal Ave. (Treated site): unit not given here", "settings": "for thickness of grafts, Left Distal Ave. (Treated site): left distal anastomosis infused with polyamine; for thickness of grafts, Left Distal Ave. (Treated site) / thickness of grafts, Left Proximal Ave.: pump 2.5 ul/hr for 28 days, one animal per line; for thickness of grafts, Left Proximal Ave.: polyamine-infused left graft, proximal anastomosis upstream of polyamine administration", "method": "The procedure of Chen et al., Journal of Vascular Surgery 31(2):354 (2000) was used to prepare the animals. Briefly, baboons underwent bilateral aortoiliac bypass grafting with expanded polytetrafluoroethylene grafts. The distal anastomosis of one graft (the left graft) was infused with polyamine; the distal anastomosis of the contralateral graft (right graft) was infused with placebo (saline). The drugs were infused with the Alzet 2ML4 pump at a flow rate of 2.5 ul/hr for 28 days. For administration of CGC-11093, the pump contained 4.4 mg/ml (10 mM) drug and delivered 266 ug/day (7.5 mg in 28 days). For administration of CGC-11159, drug concentration was also at 10 mM; the pump delivered 646.2 ug/day (18.1 mg in 28 days). After 28 days the grafted vessels were harvested and analyzed. All anastomosis/graft samples were harvested by in vivo pressure-perfusion fixation with 10% Neutral Buffered Formalin (NBF) and fixed further overnight in 10% NBF. Samples were cut into several sections (noting proximal and distal) and marked with green dye for standard overnight processing. Processed samples were embedded in paraffin sectioned at […] intervals and stained with conventional hematoxylin and eosin (H&E). For morphometric measurements and analysis, H&E sections were imaged with a Nikon EFD-3 microscope with darkfield and polarized light epiluminescence and an RT Slider Diagnostic Camera. Graft and vessel sections were analyzed with respect to total neointimal area and maximal thickness. Morphometric analysis was performed using Image-Pro Plus 4.5 (Media Cybernetics) software. All images were digitized and archived."}, "[2]": {"test_system": "pig femoral AV grafts (graft vein anastomosis/proximal vein, venous neointimal hyperplasia)", "experiment": "Histopathology of PTA-injured porcine arteriovenous (AV) grafts with perivascular drug infusion", "assay_type": "in vivo", "settings": "for decrease in luminal stenosis versus placebo: perivascular injections, summary of results, dose not given", "method": "This example was performed to determine the effect of injections of CGC-11093 and CGC-11159 on the vasculature of pigs following arteriovenous grafting. The histopathology of reactive and inflammatory responses of pig femoral AV grafts 14 days after Mercator Microsyringe infusion with 1 mg CGC-11093 (6 sites), 10 mg CGC-11093 (2 sites), 10 mg CGC-11159 (8 sites), or placebo saline injection (8 sites) in conjunction with percutaneous transluminal angioplasty (PTA) of the graft vein anastomosis and the proximal vein was assessed.\nThe methods used were as follows: all graft-vein anastomosis/proximal vein (GVA/PV) sites were subjected to angioplasty and perivascular injection via Mercator Microsyringe. Angioplasty was performed and drugs were infused 14 days after graft implant; animals were sacrificed 14 days later for histopathological examination. A total of 24 GVA/PV sites were evaluated. Six sites received 1 mg of CGC-11093; two sites received 10 mg CGC-11093, eight sites received 10 mg of CGC-11159, and eight sites received placebo injection with saline. All injections were performed in conjunction with percutaneous transluminal angioplasty (PTA) of the GVA and PV.\nAfter 14 days, the graft vein anastomosis sites (GVA/PV) were excised en bloc and perfused with formalin. Sectioning of the graft vein anastomosis was performed as follows: briefly, tissue sections were taken at approximately 5 mm intervals through the proximal vein (PV). Tissue sections were taken at approximately 3 mm intervals through the graft-vein anastomosis (GVA) site. Sections were taken at approximately […] intervals through the distal vein (DV). All tissues were routinely processed, embedded in paraffin, sectioned at 5 microns and stained with hematoxylin and eosin for histopathologic evaluation. Numerous histologic sections through each PV, DV and GVA were evaluated. Each section was labeled with the letter P, G, or D (P=proximal vein, G=graft vein anastomosis, and D=Distal vein) and with a corresponding number to indicate proximity to the graft vein anastomosis.\nThe histopathologic evaluation included a general description of relevant features regardirig tissue reaction and inflammation around the graft vein anastomosis (GVA) and through the proximal femoral vein (PV). Histopathologic features including inflammation, fibrosis, angiogenesis and venous neointimal hyperplasia (VNH) within the GVA and PV were assessed. Attempts were made to differentiate between histopathologic changes attributed to the surgical procedure, secondary affects of GVA, angioplasty and perivascular injection of drug via Mercator Microsyringe.\nInitial histopathologic evaluation was performed on all tissues to define the common inflammatory and reactive changes in all specimens. An overall general description of changes in sections of PV and GVA was made. An estimate of the percent occlusion of the most severely affected segment in both the PV and GVA was made. Two precise, perpendicular cross sectional measurements of the lumen were made in the most severely affected section of the PV. In the GVA a single luminal diameter was measured in the most severely affected section. Next, a qualitative assessment of overall severity of VNH, as well as inflammation within the VNH and degree of angiogenesis within the VNH was made for both the PV and the GVA. Additionally, a general description of the overall perivascular tissue reaction around the PV and the GVA was recorded. Lastly, unique, and potentially significant, pathologic features were documented. Unique pathologic features generally included interpretation of the overall severity of the changes, presence or absence of an inflamed seroma, or presence of thrombosis or infection in the GVA or PV. When assessing the degree or severity of a certain histopathologic change (i.e. severity of VNH, etc) a qualitative scoring method was used. A score of 0=absent, 1=minimal, 2=mild, 3=moderate, 4=severe."}},
  "note": "“Also recorded” adds a separate entry of the source.",
  "data": [
    {"compound": "CCCCCNCCCCNCC1CC1CNCCCCNCC", "note": "(racemic) [CGC-11302, N-{2-[(4-Ethylamino-butylamino)-methyl]-cyclopropylmethyl}-N′-pentyl-butane-1,4-diamine]", "values": [
      {"measurement": "thickness of grafts, Left Distal Ave. (Treated site)", "setting": "[1]", "value": 0.822},
      {"measurement": "thickness of grafts, Left Proximal Ave.", "setting": "[1]", "value": 1.047}
    ]},
    {"compound": "CCNCCCCNCC1CC1CNCCCCNCC", "note": "(stereo not shown) [CGC-11093]", "values": [
      {"measurement": "degree of VNH angiogenesis, summary", "setting": "[2]; 1 mg", "value": "minimal to absent VNH angiogenesis"},
      {"measurement": "histopathologic features/changes, summary", "setting": "[2]; 1 mg", "value": "fewer significant or potentially deleterious histopathologic features; also recorded: less severe histopathologic changes"},
      {"measurement": "severity of VNH inflammation, summary", "setting": "[2]; 1 mg", "value": "minimal VNH inflammation"},
      {"measurement": "severity of overall VNH in PV and GVA, summary", "setting": "[2]; 1 mg", "value": "minimal amount of VNH in both the PV and GVA"},
      {"measurement": "vascular occlusion, summary", "setting": "[2]; 1 mg, compared with other animals in the study", "value": "less severe vascular occlusion than other animals in the study"},
      {"measurement": "decrease in luminal stenosis versus placebo", "setting": "[2]", "value": 49.2, "unit": "%"},
      {"measurement": "thickness of grafts, Left Distal Ave. (Treated site)", "setting": "[1]", "value": 1.072},
      {"measurement": "thickness of grafts, Left Proximal Ave.", "setting": "[1]", "value": 0.499}
    ]},
    {"compound": "CCNCCCCNCC1CC1CNCCCCNCC", "note": "(stereo not shown) [CGC-11098]", "values": [
      {"measurement": "thickness of grafts, Left Distal Ave. (Treated site)", "setting": "[1]", "value": 1.778},
      {"measurement": "thickness of grafts, Left Proximal Ave.", "setting": "[1]", "value": 0.938}
    ]},
    {"compound": "CCNCCCCNCCCCNCCCCNCCCCNCCCCNCCCCNCCCCNCCCCNCCCCNCC", "note": "[CGC-11159, CH3CH2—NH—(CH2CH2CH2CH2—NH—)9—CH2CH3]", "values": [
      {"measurement": "degree of VNH angiogenesis in PV and GVA, summary", "setting": "[2]; 10 mg", "value": "greater degree of VNH angiogenesis in the PV and GVA"},
      {"measurement": "incidence of GVA/PV thrombosis", "setting": "[2]; 10 mg", "value": "higher incidence of GVA/PV thrombosis"},
      {"measurement": "luminal diameter of PV, summary", "setting": "[2]; 10 mg", "value": "more likely to have a smaller luminal diameter"},
      {"measurement": "perivascular tissue reaction (inflammation around the graft)", "setting": "[2]; 10 mg", "value": "prominent, nodular lymphofollicular inflammation forming a rim surrounding the outside surface of the graft; also recorded: prominent, nodular to coalescing lymphocytic inflammation around the implanted graft material; also recorded: more prominent abnormal perivascular tissue reactions"},
      {"measurement": "severity of overall VNH in PV and GVA, summary", "setting": "[2]; 10 mg", "value": "more severe VNH in both the PV and GVA"},
      {"measurement": "unique histopathologic features, summary", "setting": "[2]; 10 mg", "value": "often developed luminal thrombosis of both the PV and GVA as well as prominent lymphofollicular inflammation surrounding the graft material"},
      {"measurement": "sites that developed fibrin thrombosis within the graft, with some degree of vascular and/or graft occlusion", "setting": "[2]; 10 mg, eight sites treated", "value": "five of eight"},
      {"measurement": "luminal occlusion or stenosis of the PV and GVA, summary", "setting": "[2]; 10 mg, most animals, generally associated with thrombosis of the graft", "value": "more severe luminal occlusion or stenosis of the PV and GVA"},
      {"measurement": "severity of VNH inflammation, summary", "setting": "[2]; 10 mg, probably associated with thrombus formation", "value": "greater severity of VNH inflammation"},
      {"measurement": "decrease in luminal stenosis versus placebo", "setting": "[2]", "value": 22.6, "unit": "%"},
      {"measurement": "decrease in average maximal thickness of hyperplasia in the vascular graft", "setting": "[1]; left distal anastomosis compared with placebo-treated grafts (right proximal and distal anastomoses), 10 mM, 646.2 ug/day for 28 days", "value": "~50", "unit": "%"},
      {"measurement": "thickness of grafts, Left Distal Ave. (Treated site)", "setting": "[1]", "value": 0.336},
      {"measurement": "thickness of grafts, Left Proximal Ave.", "setting": "[1]", "value": 0.695}
    ]}
  ]
}
